Laboratory results taken from patent US5462952A, “Fenamate 1,3,4-thiadiazoles and 1,3,4-oxadiazoles as antiinflammatory agents” (Warner-Lambert Company, priority 1993, dated 1995).
Where a name gives a salt, the structure may show the parent alone. Read-outs that look alike come from different tables or passages of the source.

Legend:
Cyclooxygenase = experiment: ARBC whole cell cyclooxygenase assay (PGF2α formation in RBL-1 cells, A23187-stimulated); assay type: cell-based, rat; parameters: key to ARBC, activity at the screening dose: Not active at the screening dose; conditions: for ARBC, activity at the screening dose: Table 2, screening dose
Method: (§1) The rat basophilic leukemia cell line (RBL-1) was obtained from the American Type Culture Collection (Rockville, Md.).
(§2) Radioimmunoassay (RIA) kits of LTB4 and PGF2α were obtained from Amersham (Arlington Heights, Ill.) and Seragen (Boston, Mass.), respectively.
(§3) RBL-1 cells are grown in suspension culture in Eagle's minimum essential medium supplemented with 12% fetal bovine serum at 37° C. in an incubator supplied with air-5% carbon dioxide. Cells are harvested by centrifugation. They are washed with cold phosphate buffered saline pH 7.4 (PBS; NaCl, 7.1 g; Na2 HPO4, 1.15 g; KH2 PO4, 0.2 g; and KCl, 0.2 g/l). Cells are finally suspended in PBS containing 1.0 mM calcium at a density of 2×10^6 cells/ml. Cells are incubated with and without test agent (in DMSO) (1% DMSO is without effect on arachidonic acid metabolism) for ten minutes at room temperature. Calcium ionophore A23187 (5 μM) is added and cells are incubated for seven minutes at 37° C. The reaction is stopped by chilling the tubes on ice for ten minutes. Cells are separated by centrifugation and the supernatant is stored at -20°. Aliquots (100 μl) are analyzed for LTB4 and PGF2α using radioimmunoassay kits as provided by the supplier.
(§4) Tables 1 and 2 contain biochemical data obtained from the whole cell assay described above as IC50 s which are calculated as the concentration of test compound causing 50% inhibition of LTB4 or PGF2α formation. Table 2 also provides the dose at which 40% of swelling is inhibited in the CFE-2 assay.

5-Lipoxygenase = target: T1, 5-Lipoxygenase (Rattus norvegicus, UniProt P12527); experiment: ARBL whole cell 5-lipoxygenase assay (LTB4 formation in RBL-1 cells, A23187-stimulated); assay type: cell-based; parameters: key to ARBL, activity at the screening dose: Not active at the screening dose; conditions: for inhibition at 10 µM: Table 2, @ 10 μM; for ARBL, activity at the screening dose: Table 2, screening dose, class symbol N; for IC50: Table 2
T1 construct: host or cells: RBL-1 (rat basophilic leukemia)
T1 sequence (P12527 1-673): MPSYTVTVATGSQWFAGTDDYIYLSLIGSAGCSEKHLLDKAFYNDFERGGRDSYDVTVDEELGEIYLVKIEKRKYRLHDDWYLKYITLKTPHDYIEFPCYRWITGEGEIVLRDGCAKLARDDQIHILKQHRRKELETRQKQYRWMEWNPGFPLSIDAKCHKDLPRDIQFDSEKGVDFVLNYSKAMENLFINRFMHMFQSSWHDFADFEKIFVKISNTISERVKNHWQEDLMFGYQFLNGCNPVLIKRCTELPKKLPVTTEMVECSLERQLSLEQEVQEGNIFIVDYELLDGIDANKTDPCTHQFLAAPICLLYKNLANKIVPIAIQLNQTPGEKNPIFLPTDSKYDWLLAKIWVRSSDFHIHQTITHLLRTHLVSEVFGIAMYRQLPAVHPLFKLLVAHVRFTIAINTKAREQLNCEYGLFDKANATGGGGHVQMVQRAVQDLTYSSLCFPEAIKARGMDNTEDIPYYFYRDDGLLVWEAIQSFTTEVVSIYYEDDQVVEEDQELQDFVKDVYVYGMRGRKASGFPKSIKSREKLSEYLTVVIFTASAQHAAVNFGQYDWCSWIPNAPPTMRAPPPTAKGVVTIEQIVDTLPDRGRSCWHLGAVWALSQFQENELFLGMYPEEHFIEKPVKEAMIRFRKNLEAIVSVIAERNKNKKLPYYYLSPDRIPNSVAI
Method: as §1, §2, §3, §4

[1] = system: Carrageenan-Induced Rat Foot Paw Edema; experiment: Carrageenan-Induced Rat Foot Paw Edema-2 (CFE-2) Assay; assay type: in vivo; conditions: 5 h, Table 2, dosed one hour before carrageenan, edema at five hours, probit analysis, read-out: CFE, ID40 (dose at which 40% inhibition of swelling occurs)
Method: Carrageenan solution (1% w/v) is prepared by dissolving 100 mg carrageenan (Marine Colloidal Div., Springfield, N.J.) in 10 ml of sterile saline (0.9%) solution (Travenol). The solution is vortexed for 30 to 45 minutes. Animals are dosed with compound one hour before carrageenan challenge. Foot paw edema is induced by injecting 0.10 ml of the 1% carrageenan subcutaneously into the plantar portion of the right hind paw of each rat under light anesthesia. Initial foot paw volume is measured immediately following carrageenan challenge using mercury plethysmography (Buxco Electronics). Edema is measured five hours after carrageenan. The difference between the 5-hour and the initial paw volume is expressed as delta edema. The delta edema for each test group of animals is used to calculate the percent inhibition of edema achieved by the compound at the test dose compared with the vehicle control group. The data in Table 1 (the dose at which swelling is inhibited by the noted) is calculated by probit analysis for the dose at which 40% inhibition occurs.
as §4

[2] = read-out: ARBL, % inhibition at given concentration
[3] = Table 1, 16 μM, read-out: ARBL, % inhibition of LTB4 at 16 μM

## Cc1ccc(Cl)c(Nc2ccccc2-c2nnc(N)o2)c1Cl [Example 17, 5-[2-[[2,6-Dichloro-3-methylphenyl]amino]phenyl]-1,3,4-oxadiazol-2-amine]
Cyclooxygenase; class symbol N
  ARBC, activity at the screening dose: N
5-Lipoxygenase; [2]
  inhibition at 10 µM: 45%

## Cc1ccc(Cl)c(Nc2ccccc2-c2nnc(NC(=N)N)o2)c1Cl [Example 22, 5-[2-[(2,6-dichloro-3-methylphenyl)amino]phenyl]-1,3,4-oxadiazol-2-yl-guanidine monohydrochloride]
Cyclooxygenase; class symbol N
  ARBC, activity at the screening dose: N
5-Lipoxygenase; [2]
  inhibition at 10 µM: 46%

## Cc1ccc(Cl)c(Nc2ccccc2-c2n[nH]c(=O)o2)c1Cl [Example 1]
Cyclooxygenase; class symbol N
  ARBC, activity at the screening dose: N
5-Lipoxygenase
  ARBL, activity at the screening dose: N

## Cc1ccc(Cl)c(Nc2ccccc2-c2nnco2)c1Cl [Example 18, 2,6-Dichloro-3-methyl-N-[2-(1,3,4-oxadiazol-2-yl)phenyl]benzenamine]
Cyclooxygenase; class symbol N
  ARBC, activity at the screening dose: N
5-Lipoxygenase
  ARBL, activity at the screening dose: N

## Cc1ccc(Cl)c(Nc2ccccc2-c2nnc(S(C)(=O)=O)o2)c1Cl [Example 20, 2,6-Dichloro-3-methyl-N-[2-[5-(methylsulfonyl)-1,3,4-oxadiazol-2-yl]phenyl]benzenamine]
Cyclooxygenase; Table 2
  IC50: 3000 nM
5-Lipoxygenase
  IC50: 6320 nM

## Nc1nnc(-c2ccccc2Nc2cccc(C(F)(F)F)c2)s1 [Example 10, 5-[2-[(3-Trifluoromethylphenyl)amino]phenyl]-1,3,4-thiadiazol-2-amine]
Cyclooxygenase; Table 2
  IC50: 11000 nM
5-Lipoxygenase
  IC50: 690 nM

## FC(F)(F)c1cccc(Nc2ccccc2-c2n[nH]c(=S)o2)c1 [Example 6, 5-[2-[[3-(Trifluoromethyl)phenyl]amino]phenyl]-1,3,4-oxadiazol-2(3H)-thione]
Cyclooxygenase; Table 2
  IC50: 270 nM
[1]
  ED40: 8.5 mg/kg
5-Lipoxygenase
  IC50: 770 nM

## Cc1cccc(Nc2ccccc2-c2n[nH]c(=O)o2)c1C [Example 8, 5-[2-[(2,3-Dimethylphenyl)amino]phenyl]-1,3,4-oxadiazol-2(3H)-one]
Cyclooxygenase; class symbol N
  ARBC, activity at the screening dose: N
5-Lipoxygenase
  ARBL, activity at the screening dose: N

## Cc1ccc(Cl)c(Nc2ccccc2-c2nnc(NC#N)o2)c1Cl [Example 23, 5-[2-[(2,6-Dichloro-3-methylphenyl)amino]phenyl]-1,3,4-oxadiazol-2-yl-cyanamide]
Cyclooxygenase; Table 2
  IC50: 250 nM
5-Lipoxygenase
  IC50: 890 nM

## N=C(N)Nc1nnc(-c2ccccc2Nc2cccc(C(F)(F)F)c2)o1 [Example 27, 5-[2-[[3-(Trifluoromethyl)phenyl]amino]phenyl]-1,3,4-oxadiazol-2-yl-guanidine hydrochloride]
Cyclooxygenase; class symbol N
  ARBC, activity at the screening dose: N
5-Lipoxygenase; [2]
  inhibition at 10 µM: 100%

## Cc1ccc(Cl)c(Nc2ccccc2-c2n[nH]c(=S)s2)c1Cl [Example 5, 5-[2-[(2,6-Dichloro-3-methylphenyl)amino]phenyl]-1,3,4-thiadiazol-2(3H)-thione]
Cyclooxygenase; Table 2, @ 16 μM
  ARBC, % inhibition at given concentration: 47%
5-Lipoxygenase; Table 2, @ 16 μM, read-out: ARBL, % inhibition at given concentration
  inhibition at 16 µM: 100%

## Cc1cccc(Nc2ccccc2-c2n[nH]c(=S)o2)c1C [Example 9, 5-[2-[(2,3-Dimethylphenyl)amino]phenyl]-1,3,4-oxadiazole-2(3H)-thione]
5-Lipoxygenase
  IC50: 1000 nM

## C[S+]([O-])c1nnc(-c2ccccc2Nc2cccc(C(F)(F)F)c2)s1 (stereo not shown) [Example 31]
Cyclooxygenase; Table 2, @ 10 μM
  ARBC, % inhibition at given concentration: 51%
5-Lipoxygenase; [2]
  inhibition at 10 µM: 100%

## Nc1nnc(-c2ccccc2Nc2cccc(C(F)(F)F)c2)o1 [Example 16, 5-[2-[[3-(Trifluoromethyl)phenyl]amino]phenyl]-1,3,4-oxadiazol-2-amine]
Cyclooxygenase; Table 2
  IC50: 7120 nM
5-Lipoxygenase
  IC50: 680 nM

## CSc1nnc(-c2ccccc2Nc2cccc(C(F)(F)F)c2)s1 [Example 30, 3-Trifluoromethyl-N-[2-[5-(methylthio)-1,3,4-thiadiazol-2-yl]phenyl]benzenamine]
Cyclooxygenase; Table 2, @ 10 μM
  ARBC, % inhibition at given concentration: 44%
5-Lipoxygenase; [2]
  inhibition at 10 µM: 66%

## CS(=O)(=O)c1nnc(-c2ccccc2Nc2cccc(C(F)(F)F)c2)o1 [Example 25, N-[2-[5-(Methylsulfonyl)-1,3,4-oxadiazol-2-yl]phenyl]-3-trifluoromethyl benzenamine]
Cyclooxygenase; Table 2, @ 10 μM
  ARBC, % inhibition at given concentration: 48%
5-Lipoxygenase
  ARBL, activity at the screening dose: N

## CSc1nnc(-c2ccccc2Nc2c(Cl)ccc(C)c2Cl)o1 [Example 19, 2,6-Dichloro-3-methyl-N-[2-[5-(methylthio)-1,3,4-oxadiazol-2-yl]phenyl]benzenamine]
Cyclooxygenase; Table 2, @ 10 μM
  ARBC, % inhibition at given concentration: 55%
5-Lipoxygenase
  ARBL, activity at the screening dose: N

## Cc1ccc(Cl)c(Nc2ccccc2-c2n[nH]c(=S)o2)c1Cl [Example 2, 5-[2-[(2,6-Dichloro-3-methylphenyl)amino]phenyl]-1,3,4-oxadiazol-2(3H)-thione]
Cyclooxygenase; Table 1, footnote c
  IC50: 700 nM
Cyclooxygenase; Table 2
  IC50: 700 nM
5-Lipoxygenase; [3]
  inhibition at 16 µM: 97%
5-Lipoxygenase
  IC50: 740 nM

## S=c1[nH]nc(Cc2ccccc2Nc2c(Cl)cccc2Cl)o1 [Example 7, 5-[[2-[(2,6-Dichlorophenyl)amino]phenyl]methyl]-1,3,4-oxadiazol-2(3H)-thion]
Cyclooxygenase; Table 1, 16 μM, class symbol N
  ARBC, % inhibition of PGF2α at 16 μM: N (Less than 40% inhibition at 16 μM)
5-Lipoxygenase; [3]
  inhibition at 16 µM: 88%

## CSc1nnc(-c2ccccc2Nc2cccc(C(F)(F)F)c2)o1 [Example 24, N-[2-[5-(Methylthio)-1,3,4-oxadiazol-2-yl]phenyl]-3-trifluoromethyl benzenamine]
Cyclooxygenase; Table 2, @ 10 μM
  ARBC, % inhibition at given concentration: 44%
5-Lipoxygenase
  ARBL, activity at the screening dose: N

## CSc1nnc(-c2ccccc2Nc2c(Cl)ccc(C)c2Cl)s1 [Example 28, 2,6-Dichloro-3-methyl-N-[2-[5-(methylthio)-1,3,4-thiadiazol-2-yl]phenyl]benzenamine]
Cyclooxygenase; Table 2, @ 10 μM
  ARBC, % inhibition at given concentration: 60%
5-Lipoxygenase
  ARBL, activity at the screening dose: N

## Cc1ccc(Cl)c(Nc2ccccc2-c2nnc([S+](C)[O-])o2)c1Cl (stereo not shown) [Example 21, 2,6-Dichloro-3-methyl-N-[2-[5-(methylsulfinyl)-1,3,4-oxadiazol-2-yl]phenyl]benzenamine]
Cyclooxygenase; Table 2
  IC50: 1790 nM
5-Lipoxygenase
  IC50: 910 nM

## N#CNc1nnc(-c2ccccc2Nc2cccc(C(F)(F)F)c2)o1 [Example 26, 5-[2-[[3-(Trifluoromethyl)phenyl]amino]phenyl]-1,3,4-oxadiazol-2-yl-cyanamide]
Cyclooxygenase; Table 2
  IC50: 1040 nM

## Cc1ccc(Cl)c(Nc2ccccc2-c2nnc([S+](C)[O-])s2)c1Cl (stereo not shown) [Example 29, 2,6-Dichloro-3-methyl-N-[2-[5-(methylsulfinyl)-1,3,4-thiadiazol-2-yl]phenyl]benzenamine]
Cyclooxygenase; Table 2
  IC50: 8480 nM
5-Lipoxygenase
  IC50: 3300 nM

## Cc1ccc(Cl)c(Nc2ccccc2-c2nnc(N)s2)c1Cl [Example 4, 5-[2-[(2,6-Dichloro-3-methylphenyl)amino]phenyl]-1,3,4-thiadiazol-2-amine]
Cyclooxygenase; Table 1, footnote c
  IC50: 6100 nM
Cyclooxygenase; Table 2
  IC50: 6100 nM
5-Lipoxygenase
  IC50: 600 nM

## FC(F)(F)c1cccc(Nc2ccccc2-c2n[nH]c(=S)s2)c1 [Example 12, 5-[2-[(3-Trifluoromethylphenyl)amino]phenyl]-1,3,4-thiadiazole-2(3H)-thione]
Cyclooxygenase; Table 2
  IC50: 850 nM
[1]
  ED40: 4.7 mg/kg
5-Lipoxygenase
  IC50: 870 nM
